For experiment [1], the target named is T1, Alpha-2A adrenergic receptor (Homo sapiens, UniProt P08913).
T1 sequence (P08913 whole entry): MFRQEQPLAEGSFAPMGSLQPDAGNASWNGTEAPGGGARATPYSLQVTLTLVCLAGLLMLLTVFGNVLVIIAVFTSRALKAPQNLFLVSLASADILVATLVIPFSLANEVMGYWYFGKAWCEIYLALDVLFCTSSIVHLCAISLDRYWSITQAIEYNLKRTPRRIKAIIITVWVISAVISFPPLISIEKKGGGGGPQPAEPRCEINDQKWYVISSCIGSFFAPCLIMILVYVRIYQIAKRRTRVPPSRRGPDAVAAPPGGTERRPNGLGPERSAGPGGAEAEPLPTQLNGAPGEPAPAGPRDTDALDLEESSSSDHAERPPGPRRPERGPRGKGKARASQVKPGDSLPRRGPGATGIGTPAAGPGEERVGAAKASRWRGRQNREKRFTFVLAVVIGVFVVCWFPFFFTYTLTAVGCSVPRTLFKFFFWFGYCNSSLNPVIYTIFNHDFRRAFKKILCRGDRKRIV

The target of experiment [2] is T2, Alpha-1A adrenergic receptor (Homo sapiens, UniProt P35348).
T2 sequence (P35348 whole entry): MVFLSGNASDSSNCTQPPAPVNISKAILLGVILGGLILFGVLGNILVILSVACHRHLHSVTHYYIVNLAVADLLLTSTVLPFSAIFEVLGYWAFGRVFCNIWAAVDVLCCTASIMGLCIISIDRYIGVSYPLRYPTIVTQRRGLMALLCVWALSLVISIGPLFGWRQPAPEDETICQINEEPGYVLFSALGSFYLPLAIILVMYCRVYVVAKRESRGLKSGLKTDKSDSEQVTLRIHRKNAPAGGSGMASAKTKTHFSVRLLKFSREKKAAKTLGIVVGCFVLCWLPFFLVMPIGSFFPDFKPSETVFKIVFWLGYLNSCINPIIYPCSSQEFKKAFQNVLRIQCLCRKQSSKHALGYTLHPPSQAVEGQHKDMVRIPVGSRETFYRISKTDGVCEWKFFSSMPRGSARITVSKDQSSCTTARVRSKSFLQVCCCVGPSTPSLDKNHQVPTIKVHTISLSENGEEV
Format: functional, cell-based.

The target in another experiment is Histamine H1 receptor (Homo sapiens, UniProt P35367).
Experiment [3] concerns the target Vascular endothelial growth factor receptor 2 (Homo sapiens, UniProt P35968). Format: functional.
Another experiment has as its target T3, Progesterone receptor (Homo sapiens, UniProt P06401).
T3 sequence (P06401 whole entry): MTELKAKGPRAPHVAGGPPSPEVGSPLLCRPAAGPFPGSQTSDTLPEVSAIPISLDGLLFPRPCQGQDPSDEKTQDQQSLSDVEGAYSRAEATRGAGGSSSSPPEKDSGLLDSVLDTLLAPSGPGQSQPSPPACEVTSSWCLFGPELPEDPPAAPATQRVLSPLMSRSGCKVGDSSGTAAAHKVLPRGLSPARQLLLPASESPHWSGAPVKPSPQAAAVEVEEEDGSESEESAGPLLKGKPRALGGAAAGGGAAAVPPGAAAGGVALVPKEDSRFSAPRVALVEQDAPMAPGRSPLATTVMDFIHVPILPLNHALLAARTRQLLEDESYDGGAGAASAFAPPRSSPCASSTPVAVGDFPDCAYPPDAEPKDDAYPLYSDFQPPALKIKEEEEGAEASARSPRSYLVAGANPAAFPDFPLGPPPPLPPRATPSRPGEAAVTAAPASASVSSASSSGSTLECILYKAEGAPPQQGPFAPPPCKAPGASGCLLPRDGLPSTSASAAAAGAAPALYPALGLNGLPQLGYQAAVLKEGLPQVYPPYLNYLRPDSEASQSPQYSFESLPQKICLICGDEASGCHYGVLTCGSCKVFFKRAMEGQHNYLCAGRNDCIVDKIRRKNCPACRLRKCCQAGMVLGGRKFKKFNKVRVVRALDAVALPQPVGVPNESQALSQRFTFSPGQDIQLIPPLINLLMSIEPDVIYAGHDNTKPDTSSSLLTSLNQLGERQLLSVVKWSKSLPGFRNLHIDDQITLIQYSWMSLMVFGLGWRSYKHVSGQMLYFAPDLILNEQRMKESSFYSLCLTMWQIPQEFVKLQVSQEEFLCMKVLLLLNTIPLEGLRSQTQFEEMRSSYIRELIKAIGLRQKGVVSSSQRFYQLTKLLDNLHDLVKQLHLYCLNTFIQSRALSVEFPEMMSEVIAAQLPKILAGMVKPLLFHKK
In kind it is functional.

Experiment [4] concerns the target T4, Muscarinic acetylcholine receptor M1 (Homo sapiens, UniProt P11229).
T4 sequence (P11229 whole entry): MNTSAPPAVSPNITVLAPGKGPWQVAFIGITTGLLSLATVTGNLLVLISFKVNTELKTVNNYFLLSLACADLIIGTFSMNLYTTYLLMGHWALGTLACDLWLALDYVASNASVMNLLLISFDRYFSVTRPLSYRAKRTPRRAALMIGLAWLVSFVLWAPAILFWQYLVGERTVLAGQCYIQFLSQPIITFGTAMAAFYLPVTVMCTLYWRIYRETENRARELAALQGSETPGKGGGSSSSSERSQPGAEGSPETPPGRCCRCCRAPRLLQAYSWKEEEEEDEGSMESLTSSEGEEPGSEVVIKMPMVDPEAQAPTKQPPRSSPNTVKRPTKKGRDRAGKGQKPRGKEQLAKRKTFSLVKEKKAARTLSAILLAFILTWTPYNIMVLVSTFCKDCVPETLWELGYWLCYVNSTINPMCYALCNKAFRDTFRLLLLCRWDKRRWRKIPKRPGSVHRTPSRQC
In kind it is functional.

Another experiment addresses Acetylcholinesterase (Homo sapiens, UniProt P22303). In kind it is functional.
Experiment [5] has as its target 5-hydroxytryptamine receptor 2A (Homo sapiens, UniProt P28223). Format: functional, cell-based.
A further experiment concerns the target T5, B2 bradykinin receptor (Homo sapiens, UniProt P30411).
T5 sequence (P30411 whole entry): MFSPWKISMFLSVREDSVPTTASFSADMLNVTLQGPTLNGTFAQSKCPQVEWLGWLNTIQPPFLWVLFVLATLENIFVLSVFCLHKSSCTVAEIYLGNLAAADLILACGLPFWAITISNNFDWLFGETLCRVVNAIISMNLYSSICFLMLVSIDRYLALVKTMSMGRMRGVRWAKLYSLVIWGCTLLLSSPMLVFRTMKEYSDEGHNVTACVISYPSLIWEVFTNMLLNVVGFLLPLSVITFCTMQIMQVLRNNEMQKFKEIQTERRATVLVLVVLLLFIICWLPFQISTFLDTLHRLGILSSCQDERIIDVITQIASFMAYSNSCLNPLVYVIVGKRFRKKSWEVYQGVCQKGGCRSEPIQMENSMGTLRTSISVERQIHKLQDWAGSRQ
Also: assay procedure not described here.

Histamine H1 receptor, sequence (P35367 whole entry): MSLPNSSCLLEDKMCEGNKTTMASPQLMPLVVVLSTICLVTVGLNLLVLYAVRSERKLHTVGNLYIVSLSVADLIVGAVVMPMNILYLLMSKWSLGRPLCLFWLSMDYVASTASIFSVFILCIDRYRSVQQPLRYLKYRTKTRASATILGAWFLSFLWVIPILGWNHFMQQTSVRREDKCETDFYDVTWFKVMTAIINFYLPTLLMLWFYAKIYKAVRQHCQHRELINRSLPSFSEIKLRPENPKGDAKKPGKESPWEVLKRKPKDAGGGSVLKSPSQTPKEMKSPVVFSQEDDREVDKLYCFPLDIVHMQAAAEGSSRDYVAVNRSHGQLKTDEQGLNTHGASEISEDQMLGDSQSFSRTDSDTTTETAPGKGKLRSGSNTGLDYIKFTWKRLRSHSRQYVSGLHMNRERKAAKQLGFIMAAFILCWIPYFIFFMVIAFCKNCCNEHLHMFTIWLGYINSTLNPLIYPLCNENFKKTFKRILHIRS
Vascular endothelial growth factor receptor 2, sequence (P35968 whole entry): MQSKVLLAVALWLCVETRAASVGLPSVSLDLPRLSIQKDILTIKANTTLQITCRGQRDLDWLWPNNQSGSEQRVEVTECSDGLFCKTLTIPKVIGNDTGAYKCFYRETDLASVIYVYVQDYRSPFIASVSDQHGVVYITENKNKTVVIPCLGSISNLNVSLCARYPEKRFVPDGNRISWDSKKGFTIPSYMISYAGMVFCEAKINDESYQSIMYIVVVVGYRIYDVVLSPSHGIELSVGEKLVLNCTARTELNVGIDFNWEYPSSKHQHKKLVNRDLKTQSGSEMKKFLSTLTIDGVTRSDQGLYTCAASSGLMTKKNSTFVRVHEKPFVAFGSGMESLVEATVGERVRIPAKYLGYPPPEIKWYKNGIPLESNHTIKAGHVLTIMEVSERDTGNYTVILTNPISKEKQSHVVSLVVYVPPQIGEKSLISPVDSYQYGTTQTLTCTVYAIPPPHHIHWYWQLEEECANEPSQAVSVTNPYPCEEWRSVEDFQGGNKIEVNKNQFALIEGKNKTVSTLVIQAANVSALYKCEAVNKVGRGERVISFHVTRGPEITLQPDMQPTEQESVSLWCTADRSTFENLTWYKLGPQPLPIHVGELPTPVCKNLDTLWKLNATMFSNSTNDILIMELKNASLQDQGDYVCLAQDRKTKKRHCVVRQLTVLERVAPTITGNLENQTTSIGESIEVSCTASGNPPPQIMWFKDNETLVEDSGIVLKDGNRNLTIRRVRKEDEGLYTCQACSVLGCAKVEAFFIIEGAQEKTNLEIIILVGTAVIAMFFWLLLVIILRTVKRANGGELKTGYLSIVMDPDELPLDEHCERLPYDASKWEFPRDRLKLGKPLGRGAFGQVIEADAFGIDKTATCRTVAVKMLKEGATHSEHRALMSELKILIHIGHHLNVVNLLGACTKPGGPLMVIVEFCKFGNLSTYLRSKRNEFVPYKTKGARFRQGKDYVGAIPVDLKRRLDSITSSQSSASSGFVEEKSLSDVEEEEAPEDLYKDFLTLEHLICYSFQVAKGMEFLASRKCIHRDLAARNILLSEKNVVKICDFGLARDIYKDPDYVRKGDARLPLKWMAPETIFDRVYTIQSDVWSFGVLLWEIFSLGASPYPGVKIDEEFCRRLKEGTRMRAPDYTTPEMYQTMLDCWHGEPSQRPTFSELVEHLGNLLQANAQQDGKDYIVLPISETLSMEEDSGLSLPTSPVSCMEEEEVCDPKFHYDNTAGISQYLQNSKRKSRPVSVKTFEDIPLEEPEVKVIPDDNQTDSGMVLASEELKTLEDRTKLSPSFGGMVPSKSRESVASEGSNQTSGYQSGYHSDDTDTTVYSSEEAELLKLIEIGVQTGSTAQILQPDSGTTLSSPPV
Acetylcholinesterase, sequence (P22303 whole entry): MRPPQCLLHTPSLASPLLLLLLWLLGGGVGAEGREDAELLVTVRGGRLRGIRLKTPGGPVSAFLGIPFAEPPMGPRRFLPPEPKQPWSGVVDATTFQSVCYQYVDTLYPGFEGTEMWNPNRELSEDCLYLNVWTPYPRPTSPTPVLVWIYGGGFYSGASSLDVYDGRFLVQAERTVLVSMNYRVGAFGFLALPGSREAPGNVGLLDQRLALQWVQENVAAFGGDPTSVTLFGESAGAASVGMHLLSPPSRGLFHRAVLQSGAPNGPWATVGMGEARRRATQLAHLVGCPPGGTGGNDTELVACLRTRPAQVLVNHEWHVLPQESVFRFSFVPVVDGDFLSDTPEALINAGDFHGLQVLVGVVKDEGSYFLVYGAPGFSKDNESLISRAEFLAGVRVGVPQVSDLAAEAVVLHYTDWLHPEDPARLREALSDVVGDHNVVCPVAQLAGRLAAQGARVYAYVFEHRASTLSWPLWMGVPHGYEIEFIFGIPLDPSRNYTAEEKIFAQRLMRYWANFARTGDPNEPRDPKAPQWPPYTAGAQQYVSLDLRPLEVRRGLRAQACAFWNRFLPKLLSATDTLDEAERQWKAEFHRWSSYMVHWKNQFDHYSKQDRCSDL
5-hydroxytryptamine receptor 2A, sequence (P28223 whole entry): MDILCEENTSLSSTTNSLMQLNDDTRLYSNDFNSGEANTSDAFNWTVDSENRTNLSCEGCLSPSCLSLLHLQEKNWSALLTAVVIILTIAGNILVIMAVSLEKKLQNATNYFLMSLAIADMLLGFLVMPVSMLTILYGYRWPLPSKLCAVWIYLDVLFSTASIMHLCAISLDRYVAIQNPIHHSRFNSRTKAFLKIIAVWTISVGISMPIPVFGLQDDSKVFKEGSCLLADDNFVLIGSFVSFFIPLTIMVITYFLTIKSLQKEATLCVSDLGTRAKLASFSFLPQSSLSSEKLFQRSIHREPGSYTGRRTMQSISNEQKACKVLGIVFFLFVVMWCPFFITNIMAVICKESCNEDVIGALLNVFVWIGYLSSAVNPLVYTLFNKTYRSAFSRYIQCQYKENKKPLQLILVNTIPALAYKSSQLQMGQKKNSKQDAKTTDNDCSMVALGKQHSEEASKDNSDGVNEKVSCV

For `O=C(OCC(O)CO)c1ccccc1Nc1ccnc2cc(Cl)ccc12` (configuration not stated) [GLAFENINE], the AC50 in experiment [1] was more than 30 µM; in experiment [2], more than 30 µM; on Histamine H1 receptor it was more than 30 µM; in experiment [3], 6.96 µM; at Progesterone receptor, more than 30 µM; in experiment [4], more than 30 µM. Also, the AC50 (on Acetylcholinesterase; in [5]) was more than 30 µM throughout.
In the case of `CC[C@H]1[C@@H](O)[C@@H]2[C@H](CC[C@]3(C)[C@@H]([C@H](C)CCC(=O)O)CC[C@@H]23)[C@@]2(C)CC[C@@H](O)C[C@@H]12` [OBETICHOLIC ACID], the AC50 (in experiment [1]; in experiment [2]; on Histamine H1 receptor; in experiment [3]; at B2 bradykinin receptor; on Progesterone receptor) was more than 30 µM each time. Moreover, the AC50 in experiment [4] was more than 30 µM; on Acetylcholinesterase it was more than 30 µM; in experiment [5], 11.5 µM.
With `NCC(CC(=O)O)c1ccc(Cl)cc1` (configuration not stated) [BACLOFEN], the AC50 (in [1]; in experiment [2]; in experiment [3]; on B2 bradykinin receptor; at Progesterone receptor; on Acetylcholinesterase) was more than 30 µM in each case.
As to `C=CCc1ccccc1OCC(O)CNC(C)C` (configuration not stated) [ALPRENOLOL], the AC50 was more than 0.3 µM in experiment [1]; more than 30 µM in [2]; more than 30 µM on Histamine H1 receptor; more than 0.3 µM in experiment [3]; 14 µM on B2 bradykinin receptor; more than 30 µM at Progesterone receptor. The results for the AC50 (in experiment [4]; at Acetylcholinesterase; in experiment [5]) were more than 30 µM, more than 0.3 µM and more than 30 µM, respectively.

What is called AC50 is the concentration at which the activity in the assay is half-maximal.

The values above are taken from ChEMBL document CHEMBL5291721, “A preclinical secondary pharmacology resource illuminates target-adverse drug reaction associations of marketed drugs” (Nat Commun, 2023).
